Assay type in all cases: cell-based
The subject of test [1] is human A549 cells. Nature of the test: Protective effect against cell injury induced by oxidized LDL in human A549 cells (LDH leakage). The following applies: for inhibition at 3 µM / inhibition at 30 µM: Homo sapiens, oxidized LDL 100 μg/mL, 24 hours, average ± standard error; for inhibition at 3 µM: 3 μmol/L test compound; for inhibition at 30 µM: 30 μmol/L test compound. The method, then: (§1) Oxidized LDL was prepared by maintaining 1 mg/mL of rabbit LDL at 37° C for 24 hours in PBS (-) containing 10 μmol/L CUSO4.
Human A549 cells used in this test are available under accession number ATCC-CCL-185 and have the properties of type II alveolar epithelial cells (Lieber M, Smith B, Szakal A, Nelson-Rees W, Todaro G., A continuous tumor-cell line from a human lung carcinoma with properties of type II alveolar epithelial cells. Int J Cancer Jan. 15, 1976; 17(1):62-70).
(§2) These cells were dispersed in F12K medium containing 10% FBS and plated on a 24-well plate at 2.5×10^4 cells/500 μL/well. These cells were incubated at 37° C. for 18 hours and then the medium was replaced by F12K medium containing 2% FBS. At this time, 2.5 μL of a solution or a suspension of each test compound in ethanol was added at the concentrations of the test compound of 3 μmol/L and 30 μmol/L in each well.
(§3) After incubation at 37° C. for 6 hours, 50 μL of a suspension of oxidized LDL was added per well at the concentration of oxidized LDL of 100 μg/mL in each well.
(§4) After incubation at 37° C. for 24 hours, 200 μL of the supernatant was collected from each well and the amount of lactate dehydrogenase (LDH) leaked from cells was determined by the SFBC method.
(§5) Further test was carried out in the same manner as the above test with the exception that each test compound was added to the cell culture after incubation for 6 hours following medium replacement and immediately before oxidized LDL was added thereto rather than when the medium was replaced with F12K medium containing 2% FBS.
(§6) Higher LDH levels in the supernatant indicate that greater cell injury is induced by oxidized LDL. Separately, one experiment was carried out using a well in the same manner as the above test with the exception that no test compound was added to the well. The level of LDH in this well was defined as 0% cell protection. In addition, other experiment was carried out using another well without adding either test compound or oxidized LDL but with adding saline instead. The level of LDH in this well was defined as 100% cell protection. These levels of LDH were used for calculating cell protection of each test compound used in the above test.
Probucol and α-tocopherol were tested for comparison with the compounds of the present invention. In this test, the test compounds were added to the cell culture after incubation for 6 hours following medium replacement and immediately before oxidized LDL was added.

Test [2] has as its system normal human bronchial/tracheal epithelial cells (NHBE w/RA). Description: Protective effect against cell injury induced by oxidized LDL in normal human bronchial/tracheal epithelial cells (LDH leakage). The following applies: 24 h, average ± standard error; for inhibition at 3 µM: 3 μmol/L test compound; for inhibition at 30 µM: 30 μmol/L test compound. The method, then:
as §1, §2, §3, §4, §5, §6
This test example was carried out in a similar manner to test example 1 except that human A549 cells were replaced with normal human bronchial/tracheal epithelial cells (NHBE w/RA: BioWhittaker Co.), cell culture medium was changed from F12K medium containing 10% FBS to BEGM® medium, and the replacement of medium was not made.
(LDH in the medium is a marker of cell lysis.)

The test system of test [3] is human A549 cells. Description: Protective effect against cell injury induced by t-butyl hydroperoxide in human A549 cells. The following applies: t-BuOOH in saline in each well.
The mark [4] stands for this setting: read-out: % Cell protection in the case where oxidized LDL was added 6 hrs after adding test compound.
[5] abbreviates: read-out: % Cell protection in the case where oxidized LDL was added immediately after adding test compound.

Read-outs that look alike come from different tables or passages of the source.

For `CC(C)(C)c1cc2c(c(C(C)(C)C)c1O)CC1(CCCCCC1)O2` [Compound 7, 4,6-di-t-butyl-5-hydroxy-2,3-dihydrobenzofuran-2-spiro-1′-cycloheptane], the inhibition at 3 µM in test [1] (setting [4]) is 1.6 ± 6%; in test [1] (setting [5]) it was -0.8 ± 2.8%; in test [2] (setting [4]), 7.7 ± 3.6%; in test [2] (setting [5]) it was 11.3 ± 1.1%. The inhibition at 30 µM was 98.2 ± 2.1% in test [1] (setting [4]), 98.4 ± 1.1% in test [1] (setting [5]), 58.7 ± 5.1% in test [2] (setting [4]) and 73.4 ± 0.4% in test [2] (setting [5]).
As to `Cc1cc2c(c(C)c1O)CC(C)(C)O2` [Compound 15, 5-hydroxy-2,2,4,6-tetramethyl-2,3-dihydrobenzofuran], the inhibition at 3 µM worked out at 30 ± 10.2% in test [1] (setting [4]), 36.1 ± 14.1% in test [1] (setting [5]), 45.9 ± 4.5% in test [2] (setting [4]) and 40.8 ± 3.3% in test [2] (setting [5]). Further, the inhibition at 30 µM in test [1] (setting [4]) came to 100.6 ± 0.9%; in test [1] (setting [5]) it was 99.6 ± 0.7%; in test [2] (setting [4]), 79.5 ± 6.4%; in test [2] (setting [5]) it was 70.6 ± 4.9%.
In the case of `CC(C)(C)c1cc2c(c(C(C)(C)C)c1O)CC1(CCCCC1)O2` [Compound 10, 4,6-di-t-butyl-5-hydroxy-2,3-dihydrobenzofuran-2-spiro-1′-cyclohexane], the inhibition at 3 µM in test [1] (setting [4]) is -0.7 ± 1.5%; in test [1] (setting [5]), 0.9 ± 1.9%; in test [2] (setting [4]), 5.3 ± 2.6%; in test [2] (setting [5]), 13.1 ± 6.4%. The inhibition at 30 µM was 97.8 ± 2.1% in test [1] (setting [4]), 96.9 ± 4.8% in test [1] (setting [5]), 37.3 ± 4.3% in test [2] (setting [4]) and 57 ± 2.5% in test [2] (setting [5]).
With `CC(C)(C)c1cc2c(c(C(C)(C)C)c1O)CC1(CCOCC1)O2` [Compound 8, 4,6-di-t-butyl-5-hydroxy-2,3-dihydrobenzofuran-2-spiro-4′-tetrahydropyran], the inhibition at 3 µM in test [1] (setting [4]) came out at 10.6 ± 6.2%; in test [1] (setting [5]), 10.8 ± 5.2%; in test [2] (setting [4]) it was 10.1 ± 6%; in test [2] (setting [5]), 13.2 ± 1.4%. For the same compound, the inhibition at 30 µM was determined as 95 ± 5.3% in test [1] (setting [4]), 93.6 ± 2.9% in test [1] (setting [5]), 74.3 ± 1.5% in test [2] (setting [4]) and 68.9 ± 0.8% in test [2] (setting [5]).
Regarding `CC(C)(C)c1cc2c(c(C(C)(C)C)c1O)CC1(CCSCC1)O2` [Compound 11, 4,6-di-t-butyl-5-hydroxy-2,3-dihydrobenzofuran-2-spiro-4′-tetrahydrothiopyran], the inhibition at 3 µM in test [1] (setting [4]) turned out to be 3.5 ± 2.6%; in test [1] (setting [5]), 4.6 ± 2.6%; in test [2] (setting [4]), 3 ± 3.2%; in test [2] (setting [5]), 7.5 ± 7.6%. Also, the inhibition at 30 µM is 99.3 ± 1.1% in test [1] (setting [4]), 98.5 ± 0.8% in test [1] (setting [5]), 52 ± 2.2% in test [2] (setting [4]) and 40.9 ± 5.3% in test [2] (setting [5]).
On to `CC(C)(C)c1cc2c(cc1O)CC1(CCCCCC1)O2` [Compound 18, 6-t-butyl-5-hydroxy-2,3-dihydrobenzofuran-2-spiro-1′-cycloheptane], for which the inhibition at 3 µM is 98.7 ± 1.3% in test [1] (setting [4]), 96.2 ± 0.4% in test [1] (setting [5]), 55.7 ± 3.1% in test [2] (setting [4]) and 46.4 ± 1.4% in test [2] (setting [5]). In addition, the figures for the inhibition at 30 µM in test [1] (setting [5]) and in test [2] (setting [5]) were 97.4 ± 1% and 35.5 ± 1.9%, respectively.
Turning to `CC1(C(=O)O)Cc2c(cc(C(C)(C)C)c(O)c2C(C)(C)C)O1` (stereo not shown) [Compound 6, 4,6-di-t-butyl-5-hydroxy-2-methyl-2,3-dihydrobenzofuran-2-carboxylic acid], the inhibition at 3 µM in test [1] (setting [4]) is 8.5 ± 0.8%; in test [1] (setting [5]), 9.1 ± 1.2%; in test [2] (setting [4]), -0.9 ± 1.8%; in test [2] (setting [5]) it was 0.3 ± 2%. For the same compound, the inhibition at 30 µM amounted to 65.3 ± 2.9% in test [1] (setting [4]), 46.7 ± 2.9% in test [1] (setting [5]), 44.8 ± 3.2% in test [2] (setting [4]) and 30.3 ± 3.1% in test [2] (setting [5]).
Take `CCCCCC1(CCCCC)Cc2c(cc(C(C)(C)C)c(O)c2C(C)(C)C)O1` [Compound 3, 4,6-di-t-butyl-2,2-di-n-pentyl-5-hydroxy-2,3-dihydrobenzofuran]: the inhibition at 3 µM in test [1] (setting [4]) was 18.7 ± 2.1%; in test [1] (setting [5]), 14.3 ± 2.3%; in test [2] (setting [4]) it was 49.8 ± 6.4%; in test [2] (setting [5]) it was 9.8 ± 3.3%. Besides, the inhibition at 30 µM in test [1] (setting [4]) stood at 95 ± 2.5%; in test [1] (setting [5]), 85.4 ± 1.6%; in test [2] (setting [4]) it was 70.8 ± 2%; in test [2] (setting [5]) it was 66.2 ± 2.6%. In addition, the “% cell protection as a function of test compound concentration (FIG. 1)” value in test [1] (test compound added immediately before oxidized LDL, Test Example 2) is “begins to sharply increase when the concentration of Compound 3 exceeds about 10 μmol/L”. Also, in test [3], the “inhibition of cell injury induced by t-butyl hydroperoxide (FIG. 2)” value is on record as “inhibits cell injury”.
Regarding `CC1(C)Cc2c(c(C(C)(C)C)cc(O)c2C(C)(C)C)O1` [Compound 16, 4,7-di-t-butyl-5-hydroxy-2,2-dimethyl-2,3-dihydrobenzofuran], the inhibition at 3 µM was 100.3 ± 1% in test [1] (setting [4]), 99.1 ± 0.9% in test [1] (setting [5]), 54.9 ± 3.4% in test [2] (setting [4]) and 62.6 ± 1.6% in test [2] (setting [5]). The inhibition at 30 µM was 98.4 ± 0.6% in test [1] (setting [5]) and 42 ± 2.2% in test [2] (setting [5]).
`CC1(C)Cc2c(cc(C(C)(C)C)c(O)c2C(C)(C)C)S1` [Compound 12, 4,6-di-t-butyl-5-hydroxy-2,2-dimethyl-2,3-dihydrobenzothiophene]: the inhibition at 3 µM was 9.9 ± 6.8% in test [1] (setting [4]), 11.1 ± 7.4% in test [1] (setting [5]), 10.9 ± 2.1% in test [2] (setting [4]) and 10.9 ± 3.8% in test [2] (setting [5]). The inhibition at 30 µM in test [1] (setting [4]) stood at 98.7 ± 2.9%; in test [1] (setting [5]) it was 96.6 ± 2%; in test [2] (setting [4]) it was 21.2 ± 2%; in test [2] (setting [5]), 48.7 ± 1.2%.
For `CC(C)(C)c1cc2c(c(C(C)(C)C)c1O)CCO2` [Compound 1, 4,6-di-t-butyl-5-hydroxy-2,3-dihydrobenzofuran], the inhibition at 3 µM worked out at 11.3 ± 1.6% in test [1] (setting [4]), 40.4 ± 8.3% in test [1] (setting [5]), 5.9 ± 4.7% in test [2] (setting [4]) and 35.6 ± 16.8% in test [2] (setting [5]). For the same compound, the inhibition at 30 µM in test [1] (setting [4]) worked out at 99.6 ± 0.9%; in test [1] (setting [5]), 98.8 ± 0.2%; in test [2] (setting [4]) it was 74.7 ± 1.4%; in test [2] (setting [5]) it was 59.2 ± 7.6%.
Turning to `CC(C)(C)c1cc2c(c(C(C)(C)C)c1O)CC1(CCOCC1)S2` [Compound 14, 4,6-di-t-butyl-5-hydroxy-2,3-dihydrobenzothiophene-2-spiro-4′-tetrahydropyran], the inhibition at 3 µM in test [1] (setting [4]) is 7 ± 3.5%; in test [1] (setting [5]) it was 3.2 ± 1.3%; in test [2] (setting [4]) it was -0.5 ± 1.9%; in test [2] (setting [5]), -1 ± 5.3%. Further, the inhibition at 30 µM is 96.1 ± 1.2% in test [1] (setting [4]), 98.9 ± 2.4% in test [1] (setting [5]), 63.3 ± 0.8% in test [2] (setting [4]) and 60.6 ± 4% in test [2] (setting [5]).

Source of the values: patent US20050159476A1, “Pharmaceutical composition for preventing or treating respiratory disease” (Chugai Seiyaku Kabushiki Kaisha, priority 2002, published 2005).
